Reference: patent US20050101595A1, “N-containing cycloalkyl-substituted amino-thiazole derivatives and pharmaceutical compositions for inhibiting cell proliferation and methods for their use” (PFIZER INC., priority 2003, published 2005)
Where two headings read alike, the source gives them in different places.

How the values were obtained:
[1] = biological target: human CDK4 and genetically truncated (1-264) cyclin D3 (Homo sapiens, UniProt P11802); assay: Inhibition of CDK4/Cyclin D Retinoblastoma Kinase Activity; type: biochemical; settings: for Ki: apparent Ki, CDK4/truncated cyclin D3, Rb fragment substrate, 25 μM ATP
Procedure: Cyclin-dependent kinase activity was measured by quantifying the enzyme-catalyzed, time-dependent incorporation of radioactive phosphate from [^32P]ATP or [^33P]ATP into a protein substrate. Unless noted otherwise, assays were performed in 96-well plates in a total volume of 50 μL, in the presence of 10 mM HEPES (N-[2-hydroxyethyl]piperazine-N′-[2-ethanesulfonic acid]) (pH 7.4), 10 mM MgCl2, 25 μM adenosine triphosphate (ATP), 1 mg/mL ovalbumin, 5 μg/mL leupeptin, 1 mM dithiothreitol, 10 mM β-glycerophosphate, 0.1 mM sodium vanadate, 1 mM sodium fluoride, 2.5 mM ethylene glycol-bis(β-aminoethyl ether)-N,N,N′N′-tetraacetic acid (EGTA), 2% (v/v) dimethylsulfoxide, and 0.03-0.4 μCi [^32/33P]ATP per reaction. Reactions were initiated with enzyme, incubated at 30° C., and terminated after 20 minutes by the addition of ethylenediaminetetraacetic acid (EDTA) to 250 mM. The phosphorylated substrate was then captured on a nitrocellulose or phosphocellulose membrane using a 96-well filtration manifold, and unincorporated radioactivity was removed by repeated washing with 0.85% phosphoric acid. Radioactivity was quantified by exposing the dried membranes to a phosphorimager.
Inhibition was measured relative to control wells that contained all reaction components including 2% (v/v) DMSO but no compound, after subtraction of background radioactivity measured in the absence of enzyme. Apparent Ki values of discrete compounds were measured by assaying enzyme activity in the presence of different inhibitor compound concentrations and subtracting the background radioactivity measured in the absence of enzyme. The kinetic parameters (kcat, Km for ATP) were measured for each enzyme under the usual assay conditions by determining the dependence of initial rates on ATP concentration. Inhibition data were fit to an equation for competitive inhibition using Kaleidagraph (Synergy Software), or were fit to an equation for competitive tight-binding inhibition using the software KineTic (BioKin, Ltd.).
Inhibition of CDK4/Cyclin D Retinoblastoma Kinase Activity:
A complex of human CDK4 and genetically truncated (1-264) cyclin D3 was purified using traditional biochemical chromatographic techniques from insect cells that had been co-infected with the corresponding baculovirus expression vectors (see e.g., Meijer and Kim, “Chemical Inhibitors of Cyclin-Dependent Kinases,” Methods in Enzymol,. vol. 283 (1997), pp. 113-128.). The enzyme complex (5 nM) was assayed with 0.3-0.5 μg of purified recombinant retinoblastoma protein fragment (Rb) as a substrate. The engineered Rb fragment (residues 386-928 of the native retinoblastoma protein; 62.3 kDa) contains the majority of the phosphorylation sites found in the native 106-kDa protein, as well as a tag of six histidine residues for ease of purification. Phosphorylated Rb substrate was captured by microfiltration on a nitrocellulose membrane and quantified using a phosphorimager as described above. For measurement of tight-binding inhibitors, the assay duration was extended to 60 minutes, during which the time-dependence of product formation was linear and initial rate conditions were met.

CDK2/Cyclin A = CDK2/Cyclin A (Homo sapiens, UniProt P24941); assay: Inhibition of CDK2/Cyclin A Retinoblastoma Kinase Activity; type: biochemical; settings: for Ki: apparent Ki, CDK2/proteolyzed cyclin A, Rb fragment substrate, 25 μM ATP
Summary of the method: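 CDK2 (10 or 19 nM), insect-cell expressed, gel-filtration purified with truncated cyclin A; Rb fragment substrate; 25 μM ATP; 10 mM HEPES pH 7.4, 10 mM MgCl2; 30° C, 60 or 75 min; EDTA stop; phosphocellulose/nitrocellulose capture, phosphorimager. % inhibition vs DMSO control, no-enzyme background subtracted.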

HCT-116 cell line = assay: Inhibition of cell growth, tetrazolium salt (MTT) assay; type: cell-based; settings: for HCT-116 % Inhibition at 0.25 μM: 0.25 μM compound; for IC50: Homo sapiens, HCT-116, 120 h, MTT, three to five days, read-out: HCT-116 IC50
Summary of the method: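 Growth inhibition by MTT reduction at 540 nm (0.2 mg/mL, 4 h at 37° C, formazan dissolved in DMSO), normalized to cells given only 0.5% v/v DMSO. HCT-116 cultures in McCoy's 5A were dosed 4 h post-plating and kept three to five days at 37° C, 5% CO2.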

[2] = 0.03 μM compound, Table 4, 0.03 µM
[3] = 0.1 μM compound, HCT-116, Table 4
[4] = 0.1 μM compound, HCT-116, Table 3

Chain of human CDK4 and genetically truncated (1-264) cyclin D3 (P11802 whole entry, the tested form may be a part): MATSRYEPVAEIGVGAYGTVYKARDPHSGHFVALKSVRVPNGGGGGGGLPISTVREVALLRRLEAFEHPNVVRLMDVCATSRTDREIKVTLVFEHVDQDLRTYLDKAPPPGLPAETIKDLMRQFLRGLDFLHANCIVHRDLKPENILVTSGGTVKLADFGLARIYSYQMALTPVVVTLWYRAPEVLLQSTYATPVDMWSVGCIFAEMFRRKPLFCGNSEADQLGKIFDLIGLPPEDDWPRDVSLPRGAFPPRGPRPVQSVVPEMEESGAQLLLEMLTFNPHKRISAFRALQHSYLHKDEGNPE
Chain of human CDK4 and genetically truncated (1-264) cyclin D3 (P30281 1-264 partner): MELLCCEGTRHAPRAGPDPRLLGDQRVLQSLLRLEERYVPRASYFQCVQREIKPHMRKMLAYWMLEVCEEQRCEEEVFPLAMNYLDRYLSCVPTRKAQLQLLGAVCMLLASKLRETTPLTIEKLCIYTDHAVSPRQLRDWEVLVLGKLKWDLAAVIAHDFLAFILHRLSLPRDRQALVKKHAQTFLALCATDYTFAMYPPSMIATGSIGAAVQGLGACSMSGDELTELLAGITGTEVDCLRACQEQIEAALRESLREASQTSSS

`Cc1onc(-c2c(Cl)cccc2Cl)c1C(=O)N1CCC(Nc2nc(N)c(C(=O)c3c(F)cccc3F)s2)CC1` [Example R26] was tested, and the “CDK4 % Inhibition at 0.03 μM” value ([1]; at 0.03 μM) was 64%, the “CDK2 % Inhibition at 0.03 μM” value (CDK2/Cyclin A; at 0.03 μM) was 17% and the “HCT-116 % Inhibition at 0.1 μM” value (HCT-116 cell line; HCT-116 cells, at 0.1 μM) was 0%. The “HCT-116 5 Inhibition at 0.25 μM” value (HCT-116 cell line; HCT-116 cells) was 46.

With `Nc1nc(NC2CCN(C(=O)c3cccs3)CC2)sc1C(=O)c1c(F)cccc1F` [Example Q64] the “CDK4 % Inhibition at 0.03 μM” value [1, 2] was 48%, the “CDK2 % Inhibition at 0.03 μM” value (CDK2/Cyclin A; [2]) was 45% and the “HCT-116 % Inhibition at 0.1 μM” value (HCT-116 cell line; 0.1 μM compound, HCT-116, Table 4, 0.1 µM) was 7%. The “HCT-116 % Inhibition at 0.25 μM” value (HCT-116 cell line; HCT-116, Table 4, 0.25 µM) was 25%.

`CCCCCc1ccc(C(=O)N2CCC(Nc3nc(N)c(C(=O)c4c(F)cccc4F)s3)CC2)cc1` [Example Q37] was tested, and the “CDK4 % Inhibition at 0.03 μM” value ([1]; 0.03 μM compound, Table 4) was 45%, the “CDK2 % Inhibition at 0.03 μM” value (CDK2/Cyclin A; 0.03 μM compound, Table 4) was 12% and the “HCT-116 % Inhibition at 0.1 μM” value (HCT-116 cell line; [3]) was 0%. The “HCT-116 % Inhibition at 0.25 μM” value (HCT-116 cell line; HCT-116, Table 4) was 31%.

`C=Cc1ccc(C(=O)N2CCC(Nc3nc(N)c(C(=O)c4c(F)cccc4F)s3)CC2)cc1` [Example R156] was tested, and the “CDK4 % Inhibition at 0.03 μM” value ([1]; at 0.03 μM) was 89%, the “CDK2 % Inhibition at 0.03 μM” value (CDK2/Cyclin A; at 0.03 μM) was 65% and the “HCT-116 % Inhibition at 0.1 μM” value (HCT-116 cell line; HCT-116 cells, at 0.1 μM) was 0%. For the same compound, the “HCT-116 5 Inhibition at 0.25 μM” value (HCT-116 cell line; HCT-116 cells) was 43.

`Nc1nc(NC2CCN(C(=O)c3cccc4c3-c3ccccc3C4=O)CC2)sc1C(=O)c1c(F)cccc1F` [Example Q74] was tested, and the “CDK4 % Inhibition at 0.03 μM” value ([1]; 0.03 μM compound, Table 4) was 19%, the “CDK2 % Inhibition at 0.03 μM” value (CDK2/Cyclin A; 0.03 μM compound, Table 4) was 2% and the “HCT-116 % Inhibition at 0.1 μM” value (HCT-116 cell line; [3]) was 3%. The “HCT-116 % Inhibition at 0.25 μM” value (HCT-116 cell line; HCT-116, Table 4) was 35%.

With `Nc1nc(NC2CCN(S(=O)(=O)c3c(Cl)cc(Cl)cc3Cl)CC2)sc1C(=O)c1c(F)cccc1F` [Example P57] the “CDK4 % Inhibition at 0.03 μM” value ([1]; 0.03 μM compound, Table 3) was 6%, the “CDK2 % Inhibition at 0.03 μM” value (CDK2/Cyclin A; 0.03 μM compound, Table 3) was 23% and the “HCT-116 % Inhibition at 0.1 μM” value (HCT-116 cell line; [4]) was 9%. For the same compound, the “HCT-116 % Inhibition at 0.25 μM” value (HCT-116 cell line; HCT-116, Table 3) was 31%.

Work on `Nc1nc(NC2CCN(S(=O)(=O)CCN3CCCC3)CC2)sc1C(=O)c1c(F)cccc1F` [Example K35, 1-{4-Amino-2-[1-(2-pyrrolidin-1-yl-ethanesulfonyl)-piperidin-4-ylamino]-thiazol-5-yl}-1-(2,6-difluoro-phenyl)-methanone.] yielded a Ki [1] of 1.1 nM, a Ki (CDK2/Cyclin A) of 3 nM and an IC50 (HCT-116 cell line; first HCT-116 column (c4)) of 140 nM. The IC50 (HCT-116 cell line; second HCT-116 column (c5)) was 450 nM.

`CN(C)c1ccc(S(=O)(=O)N2CCC(Nc3nc(N)c(C(=O)c4c(F)cccc4F)s3)CC2)cn1` [Example F19, 1-{4-Amino-2-[1-(6-dimethylamino-pyridine-3-sulfonyl)-piperidin-4-ylamino]-thiazol-5-yl}-1-(2,6-difluoro-phenyl)-methanone] showed a Ki [1] of 1.7 nM, a Ki (CDK2/Cyclin A) of 3.2 nM and an IC50 (HCT-116 cell line; first HCT-116 column (c4)) of 48 nM. For the same compound, the IC50 (HCT-116 cell line; second HCT-116 column (c5)) was 200 nM.

In the case of `Nc1nc(NC2CCN(C(=O)CCC3CCCCC3)CC2)sc1C(=O)c1c(F)cccc1F` [Example R101], the “CDK4 % Inhibition at 0.03 μM” value ([1]; at 0.03 μM) is reported as 39%, the “CDK2 % Inhibition at 0.03 μM” value (CDK2/Cyclin A; at 0.03 μM) is reported as 15% and the “HCT-116 % Inhibition at 0.1 μM” value (HCT-116 cell line; HCT-116 cells, at 0.1 μM) is reported as 7%. For the same compound, the “HCT-116 5 Inhibition at 0.25 μM” value (HCT-116 cell line; HCT-116 cells) was 45.

In the case of `COCCOC(=O)N1CCC(Nc2nc(N)c(C(=O)c3c(F)cccc3F)s2)CC1` [Example R82], the “CDK4 % Inhibition at 0.03 μM” value ([1]; at 0.03 μM) is reported as 17%, the “CDK2 % Inhibition at 0.03 μM” value (CDK2/Cyclin A; at 0.03 μM) is reported as −11% and the “HCT-116 % Inhibition at 0.1 μM” value (HCT-116 cell line; HCT-116 cells, at 0.1 μM) is reported as 0%. For the same compound, the “HCT-116 5 Inhibition at 0.25 μM” value (HCT-116 cell line; HCT-116 cells) was 50.

`COc1ccccc1CCC(=O)N1CCC(Nc2nc(N)c(C(=O)c3c(F)cccc3F)s2)CC1` [Example R175] was tested, and the “CDK4 % Inhibition at 0.03 μM” value ([1]; at 0.03 μM) was 41%, the “CDK2 % Inhibition at 0.03 μM” value (CDK2/Cyclin A; at 0.03 μM) was 19% and the “HCT-116 % Inhibition at 0.1 μM” value (HCT-116 cell line; HCT-116 cells, at 0.1 μM) was 0%. The “HCT-116 5 Inhibition at 0.25 μM” value (HCT-116 cell line; HCT-116 cells) was 47.

With `Cc1ccc2cc(S(=O)(=O)N3CCC(Nc4nc(N)c(C(=O)c5c(F)cccc5F)s4)CC3)ccc2c1` [Example P88] the “CDK4 % Inhibition at 0.03 μM” value ([1]; 0.03 μM compound, Table 3) was 49%, the “CDK2 % Inhibition at 0.03 μM” value (CDK2/Cyclin A; 0.03 μM compound, Table 3) was 44% and the “HCT-116 % Inhibition at 0.1 μM” value (HCT-116 cell line; [4]) was 7%. For the same compound, the “HCT-116 % Inhibition at 0.25 μM” value (HCT-116 cell line; HCT-116, Table 3) was 34%.
